Source: US20100304409A1, “METHOD FOR DETECTING PREMATURE SENESCENCE IN TUMOR CELLS AND A KIT FOR DETECTING PREMATURE SENESCENCE IN TUMOR CELLS” (KOREA INSTITUTE OF RADIOLOGICAL & MEDICAL SCIENCES, priority 2009, published 2010)

Assays:
Format in all cases: cell-based
[1] = system: CD (cathepsin D); experiment: Western blot analysis of CD level, MCF7
Procedure: (§1) The breast cancer cell line (MCF7) of Section 1-1, taken 4 days after irradiation exposure was applied to the cells, was washed with PBS, and the cell sample was subjected to protein extraction using a cell lysis buffer (50 mM Tri-HCl, 1% NP-40, 0.25% sodium deoxycholate, 150 mM NaCl, 1 mM PMSF, 50 mM NaF, 0.2 mM Na3VO4, 10 g/mL aprotinin, and 2 g/mL leupeptin). The extracted protein was centrifuged at 11,000 rpm for 10 min. The supernatant was collected and subjected to quantitative analysis using Bradford protein assay (Bradford, M., Anal. Biochem. 72:248-254 (1976)). 20 μg of the protein was added to 2× SDS loading buffer (60 mm Tris-Cl (pH 6.8), 25% glycerol, 2% SDS, 14.4 mM mercaptoethanol, and 0.1% bromophenol blue), and the mixture was heated at 95 for 5 min and subjected to electrophoresis on 8% SDS polyacrylamide gel at 80V for 2 hours. After the electrophoresis was complete, the separated protein was transferred to a nitrocellulose membrane (Whatman). The protein-transferred membrane was placed in a PBS solution containing 5% nonfat dry milk, and allowed to stand at room temperature for 1 hour to be blocked. Primary antibodies diluted to 1:1000 were added thereto, followed by reaction at 4 for 16 hours. The primary antibodies were polyclonal anti-eEF1A1 antibodies (Abcam, Mass., USA, Cat # ab37969 ) and anti-CD antibodies (Santa Cruz Biotechnology, Calif., USA, Cat # SC-6494 ). The secondary antibodies were horseradish peroxidase-conjugated anti-rabbit antibodies (GE healthcare, Backinghanshire, UK, Cat # NA934V). In addition, an enhanced chemiluminescence (ECL) reagent (Amersham Biosciences, Piscataway, N.J.) was used for confirmation of the reaction. Actin was used as an internal positive control, and primary antibodies were anti-actin antibodies (Santa Cruz Biotechnology, Calif., USA, Cat # SC-1616).
(§2) The signal intensity was scanned with HP Scanjet 2400 (Hewlett-Packard Company, Palo Alto, Calif., USA) and analyzed with ImageJ Program (http://rsb.info.nih.gov/ij/).
(§3) The procedure was performed in the same manner as in Section 1-6 of Example 1, except that the cell line with treatment of doxorubicin at a high dose and the cell line with treatment of doxorubicin at a low dose, each of which prepared in Section 4-1, were used. In order to confirm the occurrence of apoptosis, a level of poly(ADP-ribose) polymerase (PARP) serving as an apoptosis biomarker was detected according to Western blot analysis as in Section 1-6 of Example 1, except that polyclonal anti-PARP antibodies (Cell Signaling Technology, Mass., USA, Cat #9541) were used as primary antibodies.
(§4) The procedure was performed in the same manner as in Section 1-6 of Example 1, except that the cell line prepared in Section 6-1 was used.
(§5) P-pRb and CDK2 were used as markers of G1/S phase transition arrest. Protein levels were confirmed by Western blot analysis in the same manner as in Section 1-6 of Example 1, except that primary antibodies directed against P-pRb were Phosphoro-pRb antibodies (Cell Signaling Technology, Danvers, Mass., Cat #9308), and primary antibodies directed against CDK2 were anti-CDK2 antibodies (Santa Cruze Biotechnology, Calif., USA, Cat #SC-163).
(§6) The procedure was performed in the same manner as in Section 1-6 of Example 1, except that the cell line prepared in Section 8-1 was used. In order to detect changes in levels of LC3-II which is an autophagy biomarker, anti-LC3-II antibodies (Sigma, Mo., USA, Cat #L8919) were used as primary antibodies directed against LC3-II.

[2] = system: eEF1A1 (eukaryotic elongation factor 1 alpha 1); experiment: Western blot analysis of eEF1A1 level, MCF7
Procedure: as §1, §2, §3, §4, §5, §6

[3] = system: P-pRb (phosphorylated retinoblastoma); experiment: Western blot analysis of P-pRb (G1/S arrest marker), MCF7; settings: MCF7, double thymidine treatment (15 h, 0.5 mg/mL, 8 h interval), arrested
Procedure: as §1, with “The primary antibodies were polyclonal anti-eEF1A1 antibodies (Abcam, Mass., USA, Cat # ab37969 ) and anti-CD antibodies (Santa Cruz Biotechnology, Calif., USA, Cat # SC-6494 ). The secondary antibodies were horseradish peroxidase-conjugated anti-rabbit antibodies (GE healthcare, Backinghanshire, UK, Cat # NA934V). In addition, an enhanced chemiluminescence (ECL) reagent (Amersham Biosciences, Piscataway, N.J.) was used for confirmation of the reaction. Actin was used as an internal positive control, and primary antibodies were anti-actin antibodies (Santa Cruz Biotechnology, Calif., USA, Cat # SC-1616).” left out

[4] = system: CDK2; experiment: Western blot analysis of CDK2 (G1/S arrest marker), MCF7; settings: MCF7, double thymidine treatment (15 h, 0.5 mg/mL, 8 h interval), arrested
Procedure: as §1, with “The primary antibodies were polyclonal anti-eEF1A1 antibodies (Abcam, Mass., USA, Cat # ab37969 ) and anti-CD antibodies (Santa Cruz Biotechnology, Calif., USA, Cat # SC-6494 ). The secondary antibodies were horseradish peroxidase-conjugated anti-rabbit antibodies (GE healthcare, Backinghanshire, UK, Cat # NA934V). In addition, an enhanced chemiluminescence (ECL) reagent (Amersham Biosciences, Piscataway, N.J.) was used for confirmation of the reaction. Actin was used as an internal positive control, and primary antibodies were anti-actin antibodies (Santa Cruz Biotechnology, Calif., USA, Cat # SC-1616).” left out

[5] = system: breast cancer cell line (MCF7); experiment: Senescence-associated β-galactosidase activity staining, MCF7
Procedure: The cells were washed twice with PBS and fixed with 3% formaldehyde at room temperature for 3 to 5 min. The fixed cells were washed once again with PBS, and 5 mL of a β-galactosidase activity staining solution (1 mg/mL X-Gal, 40 mM citric acid/sodium phosphate (pH 6.0), 5 mM potassium ferrocyanide, 5 mM potassium ferricyanide, 150 mM sodium chloride, and 2 mM magnesium chloride) was added thereto, followed by reaction in an incubator at 37 for 12 to 16 hours. During the reaction, the cells were cultured under light-shielding conditions by wrapping of the culture dish in silver foil.

[6] = system: breast cancer cell line (MCF7); experiment: Microscopic examination of cell morphology, MCF7; settings: for cell morphology: time course 0-96 hours
Procedure: In order to confirm premature senescence, characteristic morphological changes of cells in the control group and the breast cancer cell line 4 days after irradiation exposure thereof, each of which prepared in Section 1-1, were examined under a microscope (ECLIPSE TE300, Nikon).
In order to ascertain doxorubicin-induced senescence or apoptosis of a tumor cell line, the procedure was carried out in the same manner as in Section 1-2 of Example 1, except that the experiment was conducted according to a time-course schedule (0, 16, 24, 48, and 96 hours) using the cell line of Section 4-1.
Morphological changes of cells in the control group and the tamoxifen-treated group of Section 8-1 were examined under a microscope (ECLIPSE TE300, Nikon).

[7] = system: poly(ADP-ribose) polymerase (PARP); experiment: Western blot analysis of PARP cleavage (apoptosis biomarker), MCF7; settings: MCF7, high dose (10 μg/mL)
Procedure: (§7) The breast cancer cell line (MCF7) of Section 1-1, taken 4 days after irradiation exposure was applied to the cells, was washed with PBS, and the cell sample was subjected to protein extraction using a cell lysis buffer (50 mM Tri-HCl, 1% NP-40, 0.25% sodium deoxycholate, 150 mM NaCl, 1 mM PMSF, 50 mM NaF, 0.2 mM Na3VO4, 10 g/mL aprotinin, and 2 g/mL leupeptin). The extracted protein was centrifuged at 11,000 rpm for 10 min. The supernatant was collected and subjected to quantitative analysis using Bradford protein assay (Bradford, M., Anal. Biochem. 72:248-254 (1976)). […]
as §3

[8] = system: lung cancer cell line H460; experiment: Microscopic examination of cell morphology, H460; settings: 96 hours
Procedure: In order to ascertain doxorubicin-induced senescence or apoptosis of a tumor cell line, the procedure was carried out in the same manner as in Section 1-2 of Example 1, except that the experiment was conducted 96 hours after treatment of doxorubicin on the cell line of Section 5-1.

[9] = system: CD (cathepsin D); experiment: Western blot analysis of CD level, H460
Procedure: as §7
as §3, with “antibodies. […]” for “antibodies.”

[10] = system: eEF1A1 (eukaryotic elongation factor 1 alpha 1); experiment: Western blot analysis of eEF1A1 level, H460
Procedure: as §7
as §3, with “antibodies. […]” for “antibodies.”

[11] = system: LC3-II; experiment: Western blot analysis of LC3-II (autophagy biomarker), MCF7; settings: MCF7, tamoxifen 10 μmol/L for 2 days
Procedure: as §1, with “The primary antibodies were polyclonal anti-eEF1A1 antibodies (Abcam, Mass., USA, Cat # ab37969 ) and anti-CD antibodies (Santa Cruz Biotechnology, Calif., USA, Cat # SC-6494 ). The secondary antibodies were horseradish peroxidase-conjugated anti-rabbit antibodies (GE healthcare, Backinghanshire, UK, Cat # NA934V). In addition, an enhanced chemiluminescence (ECL) reagent (Amersham Biosciences, Piscataway, N.J.) was used for confirmation of the reaction. Actin was used as an internal positive control, and primary antibodies were anti-actin antibodies (Santa Cruz Biotechnology, Calif., USA, Cat # SC-1616).” left out

[12] = MCF7, double thymidine block, arrested at G1/S
[13] = MCF7, released from DTB, additional 48 h
[14] = MCF7, camptothecin 40 nM, etoposide 30 μM
[15] = MCF7, camptothecin 40 nM, etoposide 30 μM, control group (Con)=1
[16] = MCF7, Day 4, Day 0=1, ImageJ scanning, dose not restated (senescence, low dose implied)
[17] = MCF7, high dose (10 μg/mL), apoptotic conditions
[18] = MCF7, low-dose doxorubicin (50 ng/mL)
[19] = H460, high-dose doxorubicin (10 μg/mL), apoptosis
[20] = H460, low-dose doxorubicin (50 ng/mL)
[21] = MCF7, tamoxifen 10 μmol/L for 2 days, autophagy

`Cc1cn([C@H]2C[C@H](O)[C@@H](CO)O2)c(=O)[nH]c1=O` [DTB, thymidine] was tested, and the “protein level of CD (Western blot)” value [1, 12] was “No significant alteration”, the “CD level (Western blot)” value [1, 13] was “did not exhibit any alteration” and the “protein level of eEF1A1 (Western blot)” value [2, 12] was “No significant alteration”. For the same molecule, the “eEF1A1 level (Western blot)” value [2, 13] was “did not exhibit any alteration”, the “phosphorylated pRb level (Western blot)” value [3] was “decrease” and the “CDK2 level (Western blot)” value [4] was “accumulation”.
`CC[C@@]1(O)C(=O)OCc2c1cc1n(c2=O)Cc2cc3ccccc3nc2-1` [camptothecin] was tested, and the “senescence-associated β-galactosidase activity staining” value ([5]; MCF7, camptothecin 40 nM, etoposide 30 μM, versus control group) was “exhibited characteristics of premature senescence”, the “level of CD (Western blot)” value [1, 14] was “increases” and the “CD band signal intensity, relative” value [1, 15] was 7.46. The “level of eEF1A1 (Western blot)” value [2, 14] was “decreases” and the “eEF1A1 band signal intensity, relative” value [2, 15] was 0.73.
In the case of `COc1cccc2c1C(=O)c1c(O)c3c(c(O)c1C2=O)C[C@@](O)(C(=O)CO)C[C@@H]3O[C@H]1C[C@H](N)[C@H](O)[C@H](C)O1` [doxorubicin], the cell morphology ([6]; MCF7, high dose (10 μg/mL)) is reported as “apoptosis-specific morphological changes”, the cell morphology ([6]; MCF7, low dose (50 ng/mL)) is reported as “senescence-specific morphological changes” and the SA-β-gal staining ([5]; MCF7, 4 days after treatment of doxorubicin (50 ng/mL)) is reported as “positive SA-β-gal staining”. The “CD band signal intensity, relative” value [1, 16] was 2.45, the “protein level of CD (Western blot)” value [1, 17] was “gradually decreased” and the “level of CD (Western blot)” value [1, 18] was “increases”. The “eEF1A1 band signal intensity, relative” value [2, 16] was 0.53, the “protein level of eEF1A1 (Western blot)” value [2, 17] was “remained unaltered” and the “level of eEF1A1 (Western blot)” value [2, 18] was “decreases”. For the same molecule, the “PARP cleavage (apoptotic marker)” value [7] was “induced”, the cell morphology ([8]; H460, high dose (10 μg/mL)) was “apoptosis-specific morphological changes” and the cell morphology ([8]; H460, low dose (50 ng/mL)) was “senescence-specific morphological changes”. For the same molecule, the “level of CD (Western blot)” value [9, 19] was “no changes”, the “level of CD (Western blot)” value [9, 20] was “increases” and the “level of eEF1A1 (Western blot)” value [10, 19] was “no changes”. The “level of eEF1A1 (Western blot)” value [10, 20] was “decreases”.
With `COc1cc([C@@H]2c3cc4c(cc3[C@@H](O[C@@H]3O[C@@H]5CO[C@@H](C)O[C@H]5[C@H](O)[C@H]3O)[C@H]3COC(=O)[C@H]23)OCO4)cc(OC)c1O` [etoposide] the “level of CD (Western blot)” value [1, 14] was “increases” and the “level of eEF1A1 (Western blot)” value [2, 14] was “decreases”.
`CC/C(=C(\c1ccccc1)c1ccc(OCCN(C)C)cc1)c1ccccc1` [tamoxifen] was tested, and the “cell morphology (autophagy)” value ([6]; MCF7, tamoxifen 10 μmol/L for 2 days) was “occurrence of autophagy”, the “level of CD (Western blot)” value [1, 21] was “decreased” and the “level of eEF1A1 (Western blot)” value [2, 21] was “decreased”. The “level of LC3-II (Western blot)” value [11] was “increased level”.
